From article PMC7274485, “A symbiotic bacterium of shipworms produces a compound with broad spectrum anti-apicomplexan activity” (PLoS Pathogens, 2020)

Test system: T. gondii ME49
Test: Length of treatment needed to kill intracellular T. gondii (compound wash-off, luciferase 72 hours later)
Type: cell-based, Toxoplasma gondii
Details: 30 nM trtE, ME49 in HFF, treated 0.5 to 4 hours, washed off, growth 72 hours after treatment
Procedure: To test this hypothesis, we infected HFF cells with luciferase-expressing T. gondii ME49 for 24 hours, then treated infected cells with trtE for 30 minutes to 4 hours. The compound was then washed off the infected cells, and parasite growth was quantified 3 days after the removal of the compound. Parasites treated for at least 2 hours were killed by trtE (Fig 2E).
T. gondii parasite lines were maintained by passage in HFFs as previously described. To determine the effect of trtE on intracellular parasites, 96 well plates containing confluent HFFs were infected with T. gondii strain ME49 modified to express green fluorescent protein (GFP) and luciferase (Luc), generated as described or T. gondii RH strain GFP/Luc (a kind gift from Dr. Jeroen Saeij, UC Davis). […] Growth was monitored by luciferase expression using Bright-glo Luciferase assay system (Promega Corp., Madison, WI). To determine the length of treatment needed to kill intracellular parasites, trtE was added to infected cells and then the compound removed 0.5, 1, 2 and 4 hours later by washing the monolayer three times with complete media. Infected cells were then incubated for 72 hours before growth was quantified by luciferase expression. For time-lapse images, HFFs were seeded into 35 mm glass bottom microwell dishes (MatTek Corporation, Ashland, MA). […]

`CC1CCC=CC=CCCC(O)CC(=O)CC2CCC(C)C3(O2)O[B-]24OC(C(=O)O1)C1(OC(CCC1C)CC(=O)CC(O)CCC=CC=CCCC(C)OC(=O)C3O2)O4` (stereo not shown) [trtE, tartrolon E] was tested, and the “Length of trtE treatment after which parasites were killed” value was “kills the parasites after two hours of treatment”.
